Where “and” joins values, the source holds several entries; their conditions need not be identical. Equal entries are not always repeated. Structures can show the parent of a compound that is named as a salt.
Experiments:
[1] = tested on: pERK (Phospho/Total ERK1/2) in CT-26 Clone 299 tumors; test: CT-26 Clone 299 pharmacodynamic model (pERK/total ERK in tumor lysates, MesoScale); format: in vivo, BALB/c-hPD1/hPDL1 mice
Protocol: Female BALB/c-hPD1/hPDL1 mice (GemPharmatech, aged 8-10 weeks) were inoculated subcutaneously with 1.0×10^6 CT-26 Clone 299 cells suspended in phosphate buffered saline.
Oral dose administration was continuous for 5 days and 2 doses of Retifanlimab was given. On day 5, plasma and tumor samples were collected 4 hour post oral dose and 24 hours post IP dose following CO2 asphyxiation. Blood was collected into ethylenediaminetetraacetic acid (450480 Greiner Bio-One) tubes. The plasma was analyzed for drug levels. Two tumor fragments per individual were collected and weighed into Omni Bead Ruptor tubes (19-628 Omni International) and flash frozen. One tumor piece was lysed at a 1:5 ratio with homogenization solution (water:acetonitrile:formic acid, 95:5:0.1, v:v:v) for drug concentration analysis. The second tumor piece was then lysed at a 1:5 ratio with lysis buffer (64KL1 FD, Cisbio) with added protease inhibitors (A32957 and A32965, Thermo Fisher) and Blocking Reagent (64KB1AAC, Cisbio) on a Bead Ruptor Elite homogenizer (19-042E, Omni International, Kennesaw, GA). Tumor lysates were spun at 10,000 revolutions per minute for 10 minutes at 4° C. The protein concentration was determined using the Pierce™ BCA Protein Assay method according to the manufacturer's protocol (23227 Thermo Fisher Scientific). The lysates were diluted with additional lysis buffer to a final concentration of 0.4 μg/μL. Samples were analyzed using the MesoScale Discovery Platform on the Phospho/Total ERK1/2 Whole Cell Lysate Kit (K15107D, MesoScale Discovery, Rockville, MD). The pERK levels were first normalized to total ERK for each sample and then to the average pERK/tERK ratio of the vehicle control group.

CT-26 Clone 299 cells = test: CT-26 Clone 299 syngeneic efficacy model; format: in vivo, BALB/c-hPD1/hPDL1 mice; conditions: for monotherapy-treated mice succumbed to tumor growth: after treatment cessation, by day 43, Compound 1 at 100 mg/kg
Protocol: BALB/c-hPD1/hPDL1 mice (GemPharmatech, strain #T004025) express human PDCD1 and CD274 (which encode the PD-1 and PD-L1 proteins, respectively) from the respective murine loci for those genes.
For survival (Kaplan-Meier) analysis: in the Compound 1 study, events were recorded when tumor volumes reached 1700 mm^3 or mice met criteria for humane endpoint (e.g. body weight loss, tumor ulceration, overall condition); in the Compound 3 study, events were recorded when tumor volumes reached 2000 mm^3, when mice met criteria for humane endpoint, or upon confirmed recurrence following a complete response (confirmed recurrence defined as a growing tumor […] following a complete response as defined above).

Q: With `Cc1nc2c(F)c(-c3cccc(Cl)c3Cl)c(CCC#N)cc2c2c1cc([C@H]1C[C@H]3C[C@H]3N1C(=O)C1CC1)n2[C@H]1[C@H]2CN[C@@H]1C2` (atropisomer, axis not shown; (Ra)) [Compound 1, 3-((Ra)-1-((1R,4R,5S)-2-azabicyclo[2.1.1]hexan-5-yl)-2-((1R,3R,5R)-2-(cyclopropanecarbonyl)-2-azabicyclo[3.1.0]hexan-3-yl)-7-(2,3-dichlorophenyl)-6-fluoro-4-methyl-1H-pyrrolo[3,2-c]quinolin-8-yl)propanenitrile monohydrochloride dihydrate] as the molecule, how does the “pERK/ERK Inhibition Relative to Vehicle Control (%, Mean)” value ([1]; 100 mg/kg Cmpd 1 QD, 4 Hr, monohydrochloride dihydrate) read?
A: 84% and 56% and 85% and 89%

Q: Which “TGI (tumor growth inhibition)” value (CT-26 Clone 299 cells; Compound 3 10 mg/kg BID PO monotherapy, day 34, vs vehicle (p=0.1127)) does the source give for `COC(=O)N1[C@@H]2C[C@@H]([C@@H](OC(F)F)C2)[C@@H]1c1cc2c(C)nc3c(F)c(-c4cccc(Cl)c4Cl)c(CCC#N)cc3c2n1[C@H]1[C@H]2CN[C@@H]1C2` (atropisomer, axis not shown; (Ra)) [Compound 3, Methyl (1R,3R,4R,5S)-3-((Ra)-1-((1R,4R,5S)-2-azabicyclo[2.1.1]hexan-5-yl)-8-(2-cyanoethyl)-7-(2,3-dichlorophenyl)-6-fluoro-4-methyl-1H-pyrrolo[3,2-c]quinolin-2-yl)-5-(difluoromethoxy)-2-azabicyclo[2.2.1]heptane-2-carboxylate] here?
A: 47%

Q: What about the “TGI (tumor growth inhibition)” value (CT-26 Clone 299 cells; Compound 3 30 mg/kg BID PO monotherapy, day 34, vs vehicle (p=0.0411)) of the same molecule?
A: 92%

Q: `Cc1c(Nc2nc(C(F)F)nc3cc(CN4CC[C@@H](O)C4)cnc23)cccc1-c1cccc(-c2nc3cc(CN4CCC(C(=O)O)CC4)cc(C#N)c3o2)c1C` [Compound 2, (R)-1-((7-Cyano-2-(3′-(2-(difluoromethyl)-7-((3-hydroxypyrrolidin-1-yl)methyl)pyrido[3,2-d]pyrimidin-4-ylamino)-2,2′-dimethylbiphenyl-3-yl)benzo[d]oxazol-5-yl)methyl)piperidine-4-carboxylic acid] was tested. Which inhibition at 25 mg/kg ([1]; Mus musculus, CT26, Compound 2 25 mg/kg BID, 5 days, 4-hour post dose) did it give?
A: 10%

Q: What about the “TGI (tumor growth inhibition)” value (CT-26 Clone 299 cells; Compound 2 25 mg/kg BID PO monotherapy, day 25) of the same molecule?
A: 17%

Q: And the tumor growth (CT-26 Clone 299 cells; Compound 2 25 mg/kg BID monotherapy, Compound 3 study)?
A: did not meaningfully alter tumor growth

Q: What about the “monotherapy-treated mice succumbed to tumor growth” value (CT-26 Clone 299 cells) of the same molecule?
A: 100%

Q: Which pERK inhibition ([1]; retifanlimab 10 mg/kg BIW, 24 hours post second dose) does the source give for “retifanlimab: humanized IgG4 monoclonal antibody that binds to human PD-1 [reference compound]” here?
A: 18%

Q: And the “monotherapy-treated mice succumbed to tumor growth” value (CT-26 Clone 299 cells)?
A: 90%

Q: And the “TGI (tumor growth inhibition)” value (CT-26 Clone 299 cells; retifanlimab 10 mg/kg BIW IP monotherapy, day 25, Compound 1 study)?
A: 52%

Q: What about the “TGI (tumor growth inhibition)” value (CT-26 Clone 299 cells; retifanlimab 10 mg/kg BIW monotherapy, day 34, Compound 3 study (p=0.0263)) of the same molecule?
A: 74%

— US20250114346A1, “COMBINATION THERAPY USING A KRAS G12D INHIBITOR AND PD-1 INHIBITOR OR PD-L1 INHIBITOR” (Incyte Corporation, priority 2023, published 2025)
